Experimental data taken from patent publication US20250331521A1, “NITROGEN-CONTAINING HETEROCYCLIC COMPOUND HAVING AN OXIME GROUP, AGRICULTURAL OR HORTICULTURAL HERBICIDE COMPRISING THE COMPOUND, AND METHOD FOR USING THE COMPOUND OR THE HERBICIDE” (NIHON NOHYAKU CO., LTD., priority 2022, published 2025).

Each compound was assayed on Barnyard grass (Echinochloa crus-galli) (assay: Test Example 1: post-emergence herbicidal effect against paddy weeds). Conditions: 144 h, active ingredient concentration 10 ppm, drop treatment in hydroponic medium, 30° C., full light, six days after treatment, compared to non-treatment group, read-out: herbicidal effect against barnyard grass (score, degree of growth inhibition).
Assay type: in vivo
Description: Test Example 1: Test for Post-Emergence Herbicidal Effect Against Paddy Weeds Barnyard grass (Echinochloa crus-galli) was seeded and grown in test tubes containing hydroponic medium in an artificial climate chamber or a phytotron. Agrochemical formulations containing the compounds of the present invention as active ingredients prepared according to Formulation Example 1 were separately diluted with water so that the concentration of the active ingredient would be a predetermined concentration and used for drop treatment of the barnyard grass. The barnyard grass was grown in the artificial climate chamber at 30° C. under full light conditions. Six days after agrochemical treatment, the herbicidal effect was evaluated as compared to the non-treatment group according to the following criteria. Criteria for Herbicidal Effect (Degree of Growth Inhibition) and Phytotoxicity • Score 4 90% to 100% herbicidal effect • Score 3 70% to 89% herbicidal effect • Score 2 40% to 69% herbicidal effect • Score 1 1% to 39% herbicidal effect • Score 0 0% herbicidal effect

SMILES	inhibition at 10 ppm [%]
CCO/N=C(\N)c1ccc(S(=O)(=O)NC)c(-c2csc(-c3ccccc3)n2)n1 [Compound No. 7-18, (Z)-N′-ethoxy-5-(N-methylsulfamoyl)-6-(2-phenylthiazol-4-yl)picolinimidamide]	70 to 89
CCO/N=C(\N)c1ccc(S(=O)(=O)NC)c(-n2nc(-c3ccccc3)cc2C)n1 [Compound No. 4-6, (Z)-N′-ethoxy-6-(5-methyl-3-phenyl-1H-pyrazol-1-yl)-5-(N-methylsulfamoyl)picolinimidamide]	70 to 89
CCO/N=C(\N)c1ccc(S(C)(=O)=O)c(-c2nc(-c3ccccc3)cs2)n1 [Compound No. 8-17, (Z)-N′-ethoxy-5-(methylsulfonyl)-6-(4-phenylthiazol-2-yl)picolinimidamide]	70 to 89
CCO/N=C(\N)c1ccc(S(=O)(=O)NC)c(-n2nc(C)c(-c3ccccc3)n2)n1 [Compound No. 20-17, (Z)-N′-ethoxy-6-(4-methyl-5-phenyl-2H-1,2,3-triazol-2-yl)-5-(N-methylsulfamoyl)picolinimidamide]	70 to 89
CCO/N=C(\N)c1ccc(C(=O)OCC)c(-c2nn(-c3ccccc3)c(=O)n2C)n1 [Compound No. 5-3, (Z)-ethyl 6-(N′-ethoxycarbamimidoyl)-2-(4-methyl-5-oxo-1-phenyl-4,5-dihydro-1H-1,2,4-triazol-3-yl)nicotinate]	70 to 89
CCO/N=C(\N)c1ccc(S(=O)(=O)NC)c(-c2nc(-c3ccccc3)nn2C)n1 [Compound No. 1-4, (Z)-N′-ethoxy-6-(1-methyl-3-phenyl-1H-1,2,4-triazol-5-yl)-5-(N-methylsulfamoyl)picolinimidamide]	70 to 89
CCO/N=C(\N)c1ccc(S(C)(=O)=O)c(-c2nn(-c3ccccc3[N+](=O)[O-])nc2C)n1 [Compound No. 11-95, (Z)-N′-ethoxy-6-(5-methyl-2-(2-nitrophenyl)-2H-1,2,3-triazol-4-yl)-5-(methylsulfonyl)picolinimidamide]	70 to 89
CCO/N=C(\N)c1ccc(S(=O)(=O)NC)c(-c2nn(-c3ccccc3)cc2C)n1 [Compound No. 10-2, (Z)-N′-ethoxy-6-(4-methyl-1-phenyl-1H-pyrazol-3-yl)-5-(N-methylsulfamoyl)picolinimidamide]	70 to 89
CCO/N=C(\N)c1ccc(S(=O)(=O)NC)c(-c2nc(-c3ccccc3)cs2)n1 [Compound No. 8-2, (Z)-N′-ethoxy-5-(N-methylsulfamoyl)-6-(4-phenylthiazol-2-yl)picolinimidamide]	70 to 89
CCO/N=C(\N)c1ccc(C(=O)OCC)c(-c2nc(-c3ccccc3)sc2C)n1 [Compound No. 7-1, (Z)-ethyl 6-(N′-ethoxycarbamimidoyl)-2-(5-methyl-2-phenylthiazol-4-yl)nicotinate]	70 to 89
CCO/N=C(\C)c1ccc(S(C)(=O)=O)c(-n2c(C)nn(-c3ccccc3)c2=O)n1 [Compound No. 6-1, (E)-4-(6-(1-(ethoxyimino)ethyl)-3-(methylsulfonyl)pyridin-2-yl)-3-methyl-1-phenyl-1H-1,2,4-triazol-5(4H)-one]	70 to 89
CCO/N=C(\N)c1ccc(S(=O)(=O)NC)c(-c2nc(-c3ccccc3Cl)nn2C)c1 [Compound No. 17-2, (Z)-3-(3-(2-chlorophenyl)-1-methyl-1H-1,2,4-triazol-5-yl)-N′-ethoxy-4-(N-methylsulfamoyl)benzimidamide]	70 to 89
CCO/N=C(\N)c1ccc(S(=O)(=O)NC)c(-n2nc(-c3ccccc3)nc2C)n1 [Compound No. 3-3, (Z)-N′-ethoxy-6-(5-methyl-3-phenyl-1H-1,2,4-triazol-1-yl)-5-(N-methylsulfamoyl)picolinimidamide]	70 to 89
CCO/N=C(\N)c1ccc(S(C)(=O)=O)c(-c2nn(-c3ccccc3)cc2C)n1 [Compound No. 10-16, (Z)-N′-ethoxy-6-(4-methyl-1-phenyl-1H-pyrazol-3-yl)-5-(methylsulfonyl)picolinimidamide]	70 to 89
CCO/N=C(\N)c1ccc(S(=O)(=O)NC)c(-c2nc(-c3ccccc3)cn2C)n1 [Compound No. 2-33, (Z)-N′-ethoxy-6-(1-methyl-4-phenyl-1H-imidazol-2-yl)-5-(N-methylsulfamoyl)picolinimidamide]	70 to 89
